# Laboratory results published in patent US10342804B2, “Steroid compound for use in the treatment of hepatic encephalopathy” (Umecrine Cognition AB, priority 2014, dated 2019).
# Where two headings read alike, the source gives them in different places.
# Assays:
# [1] = Concentrations in plasma and brain tissue after exogenous administration, LC-MS (Example 5); assay type: in vivo, rat; details: for Unbound brain concentration: 1-2 h after last treatment, seven weeks daily 20 mg/kg s.c.
# Source text: The study was divided into two series with animals (male Wistar rats), each series included the following groups; Controls treated with vehicle (CV, n=8 per series), Controls treated with 3α-ethynyl-3β-hydroxyandrostan-17-one oxime (C+GAM, n=8 per series), hyperammonemic rats treated with vehicle (HAV, n=8 per series), hyperammonemic rats treated with 3α-ethynyl-3β-hydroxyandrostan-17-one oxime (HA+GAM, n=8 per series). The once daily treatment with 3α-ethynyl-3β-hydroxyandrostan-17-one oxime at 20 mg/kg or with vehicle was performed with subcutaneous injections of 1 ml/kg around 9 a.m. Treatment started one week after starting with the ammonium containing diet and continued for the whole experimental period.
# Blood was obtained from the tail of the rats (from Example 2) in the end of second week of ammonia treatment and first week of 3α-ethynyl-3β-hydroxyandrostan-17-one oxime treatment and also from the neck during the animal sacrifice. To obtain the plasma it was added EDTA […] and centrifuged at 1500 r.p.m during 5 minutes.
# Rats were sacrificed by decapitation. One half of the brain including the cerebellum was collected and conserved at −80° C. for determination of 3α-ethynyl-3β-hydroxyandrostan-17-one oxime. Different brain areas (cerebellum, cortex, hippocampus and striatum) were dissected and conserved at −80° C. for possible determination of GAMS.
# Collected brain and plasma samples were analyzed for 3α-ethynyl-3β-hydroxyandrostan-17-one oxime concentrations. Plasma and brain samples were thawed at room temperature. Plasma was protein-precipitated with a 3-fold volume with acetonitrile and brain tissue was homogenized with a 1:4 ratio of tissue:PBS (pH 7.4) and then extracted with a 2-fold volume of methanol:acetonitrile (1:1) for 20 min during sonication. Thereafter samples were shaken and centrifuged for 10 min at 10 000×g (Heraeus Pico 17 centrifuge).
# The supernatant was then diluted with an equal volume of PBS and analyzed. Some samples were reanalyzed as 10-fold dilutions due to too high concentration of 3α-ethynyl-3β-hydroxyandrostan-17-one oxime. […]
# hyperammonemic rats [2] = test: Motor coordination in the beam walking test, chronic hyperammonemia model (Example 4); assay type: in vivo, rat; details: 20 mg/kg s.c. once daily, 3rd-4th week of treatment
# Source text: (§1) In this study an animal model of chronic hyperammonemia was used that reproduces many of the cognitive and motor alterations present in hepatic encephalopathy. Rats were fed with ammonia in their food and after two weeks with ammonia enriched food they developed symptoms of hepatic encephalopathy. The beam walking test was made during the 3rd and 4th week of 3α-ethynyl-3β-hydroxyandrostan-17-one oxime treatment while the Morris Water maze test was made during 4th-5th week of 3α-ethynyl-3β-hydroxyandrostan-17-one oxime treatment and the Radial maze test was made during 6th-7th week of 3α-ethynyl-3β-hydroxyandrostan-17-one oxime treatment.
# (§2) The study was divided into two series with animals (male Wistar rats), each series included the following groups; Controls treated with vehicle (CV, n=8 per series), Controls treated with 3α-ethynyl-3β-hydroxyandrostan-17-one oxime (C+GAM, n=8 per series), hyperammonemic rats treated with vehicle (HAV, n=8 per series), hyperammonemic rats treated with 3α-ethynyl-3β-hydroxyandrostan-17-one oxime (HA+GAM, n=8 per series). […]
# In the beam-walking test rats are trained to traverse an elevated, narrow beam to reach an enclosed escape platform. […] The parameters of motor coordination measured are: footslips (or foot faults) and latency to traverse the beam. […] The number of times the left or right hind paw slip off the beam was recorded for each trial.
# [3] = Fraction unbound in brain homogenates by dialysis; assay type: in vitro ADME; details: rat, brain homogenate, read-out: Fraction unbound (Fub) in brain homogenates
# Procedure: At the end of the treatment period plasma was collected from the tail vein, and after sacrifice by decapitation brains were collected and immediately frozen on dry ice. For analysis of 3α-ethynyl-3β-hydroxyandrostan-17-one oxime exposure, brain tissue was homogenized with a 1:4 ratio of tissue: PBS (pH 7.4) and then extracted with a 2-fold volume of methanol:acetonitrile (1:1), while plasma was protein-precipitated with a 3-fold volume with acetonitrile. Analyses were performed by Waters ACQUITY UPLC+Waters XEVO-TQS triple quadrupole mass spectrometer (Admescope Oy, Oulu, Finland). For calculations of the amount of free 3α-ethynyl-3β-hydroxyandrostan-17-one oxime exposure in the brain the fraction unbound (Fb) in brain homogenates were determined by dialysis, Fub in HA=[…] and Fub in PCS=1.43% (Admescope Oy, Oulu, Finland).
# hyperammonemic rats [4] = test: Spatial learning in the Radial maze, chronic hyperammonemia model (Example 2); assay type: in vivo, rat; details: 20 mg/kg s.c. once daily, 6th-7th week of treatment
# Source text: as §1, §2
# Training in the radial maze was composed of five blocks of three trials each, performed on ten consecutive days. […] The number of spatial reference errors and working memory were calculated and expressed as number of reference and working errors per block. […]
smiles,measurement,setting,value
C#C[C@]1(O)CC[C@@]2(C)C(CC[C@@H]3[C@@H]2CC[C@]2(C)/C(=N\O)CC[C@@H]32)C1 (stereo partly drawn) [3α-ethynyl-3β-hydroxyandrostan-17-one oxime],Unbound brain concentration,[1]; HA rats,106 ± 15.4 nmol/kg
same,Unbound brain concentration,[1]; control rats,91 ± 4.1 nmol/kg
same,"Total concentration in plasma, 23 hours vs 4 hours after injection","[1]; treatment day five, 20 mg/kg s.c., control and hyperammonemic rats",lower 23 hours after injection than 4 hours after injection
same,Motor in-coordination in the beam-walking test (slips),hyperammonemic rats [2],completely reversed motor in-coordination
same,fraction unbound,"[3]; pH 7.4, HA rats",0.007
same,fraction unbound,"[3]; pH 7.4, PCS rats",0.0143
same,Spatial learning/memory in the Radial maze (working errors),hyperammonemic rats [4],completely restored
